Here are results for 1 molecule from publication PMC12096834, “Antimicrobial peptide plectasin recombinantly produced in Escherichia coli disintegrates cell walls of gram-positive bacteria, as proven by transmission electron and atomic force microscopy” (Journal of Bacteriology, 2025).

Like-named read-outs stand apart in the source and are kept apart here.

In data set [1] the test system is Listeria monocytogenes. The experiment in a line: AFM cell thickness, stiffness and roughness. The format is cell-based. Particulars: plectasin 4 x MIC, CASPON-plectasin same molar quantity, mean ± SD of 20 measurements; for Stiffness: AFM force spectroscopy, untreated 5.4 ± 3.1. How it is done: (§1) All AFM measurements were performed on a Vecoo-Bruker AFM (Diamond, Chilton, UK), including imaging and force distance measurement. Before and after measurements, the triangular cantilever was cleaned with EtOH and acetone. Sensitivity and the spring constant were calibrated by the thermal tune method by making use of the equipartition theorem, preceded by continued ramping. After calibration, the spring constant was set to 0.4017 N/m for performing measurements.
(§2) Bacterial suspensions were prepared by taking bacterial colonies out of overnight grown agar plates and resuspending them in MHB. The suspension was set to an OD625 extinction of 0.15–0.20 corresponding to a bacterial cell density of approximately 2 × 10^8 CFU/mL. Then, 3 × 1 mL of suspension was transferred into a 2-mL reaction tube and mixed with either plectasin, CASPON-plectasin, or PBS buffer to obtain volume conditions. The concentration for plectasin was 4 x MIC, and CASPON-plectasin was of the same molar quantity as plectasin. After incubation, the bacterial suspensions were washed with PBS three times, using mild centrifugation conditions for each wash cycle (3,000 g, 15 minutes) to avoid cell damage. The washed bacterial suspension was transferred to borosilicate glass slides (24 mm diameter, 0.1 mm thickness, Menzel Gläser, Braunschweig, Germany) and left to adhere to the surface (electrostatics) for 1 hour. Afterward, the slides were washed with MilliQ water and transferred to AFM.
(§3) Bacterial images were visualized by square areas of 2 × 2 µm^2 up to 25 × 25 µm^2 with a resolution of 512 × 512 pixels. At least 15 images were taken per sample with different square dimensions for proper visualization. Surface roughness and shapes of the bacterial cell were estimated using Gwyddion software after applying a mean filter to the raw images. A total of 20 measurements were taken on cells for each parameter, providing enough values for statistical evaluation. For additional information and an illustration of the determination principle, please refer to the supplementary material (Fig. S3), which includes an example on S. aureus. By using the following equations, the surface roughness of a selected area of this flattened area was calculated from the standard deviation in the height image. The mean roughness (Ra) and the root-mean-square roughness (Rq or RMS) were used to characterize the surface of different samples:
(§4) After the position of the bacteria was determined, force spectroscopy was performed. Measurement of the central region of bacteria was performed with an approach speed of 10 µm/s and a maximum force of 2 nN. A curve length of 1 µm and a sampling rate of 2 kHz were used. At least 20 bacteria per sample were measured. Analysis of the force distance curves was performed using the software NanoScope Analysis 1.5. For calculating the stiffness of each bacterial cell, the following question was utilized:
(§5) where keff is the effective stiffness (received from the slope of the measured curve), ksample is the stiffness of the sample (bacterial cell), and kspring is the spring constant (0.4017 N/m). All constants have the unit N/m. Rearrangement of the formula leads to the following relation: […]
(§6) Measurements were pooled, and properties were calculated as described above. For each parameter, 20 measurements were used to obtain appropriate statistical values. Analysis of variance (ANOVA) was performed, followed by Student’s t-test, which is a statistical procedure that compares the averages of two independent groups (plectasin/CASPON-plectasin treated vs untreated) to determine significance in the surface roughness and stiffness of bacteria. Significances are indicated in figures and reported as “ns” for P > 0.05, “*” for P ≤ 0.05, “**” for P ≤ 0.01, and “***” for P ≤ 0.001.

The test system of data set [2] is Staphylococcus aureus. The experiment in a line: AFM cell thickness, stiffness and roughness. The note with it: plectasin 4 x MIC, CASPON-plectasin same molar quantity, mean ± SD of 20 measurements; for Stiffness: AFM force spectroscopy, untreated 5.3 ± 2.3. The format is cell-based. As to the method: as §1, §2, §3, §4, §5, §6
Data set [3] relates to Streptococcus pneumoniae. Briefly: AFM cell thickness, stiffness and roughness. It is filed as cell-based. Particulars: plectasin 4 x MIC, CASPON-plectasin same molar quantity, mean ± SD of 20 measurements; for Stiffness: AFM force spectroscopy, untreated 6.2 ± 2.4. How it is done: as §1, §2, §3, §4, §5, §6
The conditions of data set [4]: published findings; 59 (Mygind et al. 2005); cited from earlier work.
Data set [5] is classed as physicochemical. As to the method: IMAC elution buffer was exchanged five times against PBS (137 mM NaCl, […], 2.7 mM KCl, and pH 7.4) with nominal 3 kDa cut-off in Amicon Ultra spin vials (Merck, Darmstadt, Germany). The buffer was exchanged discontinuously until the imidazole concentration was below 10 mM. To prevent loss in the form of precipitated plectasin, the CASPON-plectasin was diluted with PBS to a final concentration of 3.2 mg/mL.
The buffer exchanged solution was treated by digesting CASPON-plectasin, using a 1:100 (mol/mol) dilution of the CASPON enzyme per peptide at 37°C for 12 hours. To prevent caspase oxidation and to facilitate the cleavage process, dithiothreitol (DTT) was added to a final concentration of 1 mM DTT. The temperature was maintained by using an Eppendorf Thermoblock (Hamburg, Germany). The CASPON enzyme is a modification of T7AC-6H cpCasp2, which is described by Cserjan-Puschmann et al. ([28]).
The same RP-HPLC method described by Müller et al. ([24]) was employed for CASPON-plectasin/plectasin quantification. For CASPON-plectasin and plectasin, the concentrations 1, 0.5, 0.25, 0.125, and 0.0625 g/L were utilized to construct the calibration curve.
1.6 CASPON®-plectasin cleavage conditions […]
plectasin is limited to […].
Figure S5 Cleavage experiment using CASPON®-plectasin to examine the potential cleavage of plectasin. The calculated possible plectasin was based on the used CASPON®-plectasin mass (4 g/L), assuming no losses and employing stoichiometric principles.
The temperature and CASPONT® enzyme ratio (C. R.) were varied for the cleavage process. […]
the highest achievable plectasin concentration was 1.6 g/L. This outcome is consistent with the findings of a previous study (Mygind et al. 2005), which postulated that the solubility maximum of plectasin is approximately 1.6 g/L. However, an increase in DTT beyond this concentration […]
(1 picture or pasted object on this page, not shown here)

On to `CC[C@H](C)[C@@H]1NC(=O)[C@H](CO)NC(=O)[C@H](CCCCN)NC(=O)[C@@H]2CSSC[C@@H](C(=O)N[C@@H](Cc3ccc(O)cc3)C(=O)O)NC(=O)[C@H](CCCCN)NC(=O)[C@@H]3CSSC[C@H](NC(=O)[C@H](CCC(N)=O)NC(=O)[C@H](CCSC)NC(=O)[C@H](CC(=O)O)NC(=O)[C@H](CC(=O)O)NC(=O)[C@H](CCC(=O)O)NC(=O)[C@H](CC(=O)O)NC(=O)[C@H](Cc4c[nH]c5ccccc45)NC(=O)[C@@H]4CCCN4C(=O)CNC(=O)[C@H](CC(N)=O)NC(=O)[C@@H](NC(=O)CNC(=O)[C@H](Cc4ccccc4)NC(=O)CN)CSSC[C@H](NC(=O)[C@H](Cc4ccc(O)cc4)NC(=O)CNC(=O)CNC(=O)[C@H](CCCCN)NC(=O)[C@H](Cc4ccc(O)cc4)NC(=O)CNC(=O)[C@H](CCCCN)NC1=O)C(=O)N[C@@H](C)C(=O)N[C@@H](CCCCN)C(=O)NCC(=O)NCC(=O)N[C@@H](Cc1ccccc1)C(=O)N[C@@H](C(C)C)C(=O)N3)C(=O)N[C@@H](Cc1c[nH]cn1)C(=O)N[C@@H](CC(N)=O)C(=O)N[C@@H](Cc1c[nH]cn1)C(=O)N2` [Plectasin, plectasin], for which the Stiffness result is reported as “approximately 4 N/m” in data set [1]; 3.5 ± 1.4 N/m in data set [1] (SD); “approximately 4 N/m” in data set [2]; 3.7 ± 1.7 N/m in data set [2] (SD); “approximately 4 N/m” in data set [3]; 4.7 ± 1.1 N/m in data set [3] (SD). Besides, the “Ra (mean roughness)” value in data set [1] (AFM, untreated 8.1 ± 2.5, SD) is on record as 13.5 ± 2.4 nm; in data set [2] (AFM, untreated 19.4 ± 3.5, SD), 24.76 ± 6.7 nm; in data set [3] (AFM, untreated 15.5 ± 4.2, SD), 19.7 ± 5.3 nm. The “Rq (root-mean-square roughness)” value in data set [1] (AFM, untreated 11.2 ± 3.4, SD) is on record as 16.9 ± 2.8 nm; in data set [2] (AFM, untreated 24.0 ± 4.4, SD), 30.9 ± 8.0 nm; in data set [3] (AFM, untreated 18.8 ± 4.8, SD) it was 24.5 ± 6.0 nm. Further, the Cell thickness in data set [1] (AFM, untreated 297.0 ± 13.3, SD) came out at 297.8 ± 14.0 nm; in data set [2] (AFM, untreated 485.9 ± 26.5, SD), 467.2 ± 45.1 nm; in data set [3] (AFM, untreated 375.8 ± 28.4, SD), 366.0 ± 54.1 nm. In data set [4], the “maximum solubility of plectasin” value is ~ 1.6 g/L. The “highest achievable plectasin concentration after CASPON-tag cleavage” value is reported as 1.5 g/L in data set [5] (any selected cleavage condition (temperature and CASPON enzyme ratio varied), without DTT, from 4 g/L CASPON-plectasin, preliminary experiments, Fig. S5); 1.6 g/L in data set [5] (with 1 mM DTT as supporting agent, Fig. S6). Further, the solubility of plectasin in data set [5] (in the CASPON enzyme-based tag removal step (PBS pH 7.4, 37°C)) is listed as ~ 1.6 g/L.
